Laboratory results reported in ChEMBL document CHEMBL1955826, “Acetylenic acid analogues from the edible mushroom Chanterelle (Cantharellus cibarius) and their effects on the gene expression of peroxisome proliferator-activated receptor-gamma target genes” (Bioorg Med Chem Lett, 2012).
The source made the active and inactive calls. No cut-off for these calls is given here.

Columns and labels:
[1] = molecular target: T1, Peroxisome proliferator-activated receptor delta (Homo sapiens) (UniProt Q03181); test: Agonist activity at human PPARdelta expressed in CHO cells co-transfected with pGL3-PPRE3-TK-luc assessed as transactivation at 20 ug/ml after 24 hrs by firefly luciferase reporter gene assay; type: functional, cell-based
T1 sequence (whole entry): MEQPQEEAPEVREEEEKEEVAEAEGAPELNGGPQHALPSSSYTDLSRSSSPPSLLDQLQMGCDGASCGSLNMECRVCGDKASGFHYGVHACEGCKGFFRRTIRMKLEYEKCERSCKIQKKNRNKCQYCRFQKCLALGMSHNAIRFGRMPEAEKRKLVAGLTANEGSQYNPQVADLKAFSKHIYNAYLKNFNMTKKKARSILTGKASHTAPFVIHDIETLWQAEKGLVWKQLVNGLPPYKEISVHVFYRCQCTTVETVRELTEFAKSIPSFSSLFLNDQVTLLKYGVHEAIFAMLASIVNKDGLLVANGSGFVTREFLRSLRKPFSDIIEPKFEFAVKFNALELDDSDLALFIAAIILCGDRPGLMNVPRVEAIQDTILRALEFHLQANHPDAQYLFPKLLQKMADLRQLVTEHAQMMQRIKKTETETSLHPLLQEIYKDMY

[2] = tested on: HepG2; test: Upregulation of PPARgamma in human HepG2 cells by real-time PCR method; type: functional, cell-based
[3] = molecular target: T2, Peroxisome proliferator-activated receptor alpha (Homo sapiens) (UniProt Q07869); test: Agonist activity at human PPARalpha expressed in CHO cells co-transfected with pGL3-PPRE3-TK-luc assessed as transactivation at 20 ug/ml after 24 hrs by firefly luciferase reporter gene assay; type: functional, cell-based
T2 sequence (whole entry): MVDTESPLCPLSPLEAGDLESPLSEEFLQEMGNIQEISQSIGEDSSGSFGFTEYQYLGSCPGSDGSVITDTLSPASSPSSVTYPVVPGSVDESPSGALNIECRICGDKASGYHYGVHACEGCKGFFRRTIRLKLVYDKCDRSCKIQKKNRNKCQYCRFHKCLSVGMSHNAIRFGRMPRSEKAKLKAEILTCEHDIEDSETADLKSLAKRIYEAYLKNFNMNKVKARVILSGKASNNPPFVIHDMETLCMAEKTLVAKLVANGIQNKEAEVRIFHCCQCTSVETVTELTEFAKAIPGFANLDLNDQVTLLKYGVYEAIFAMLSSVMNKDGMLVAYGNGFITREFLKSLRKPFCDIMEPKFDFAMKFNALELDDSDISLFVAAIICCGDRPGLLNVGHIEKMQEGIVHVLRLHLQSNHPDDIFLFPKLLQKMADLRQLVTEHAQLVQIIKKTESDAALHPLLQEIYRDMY

[4] = molecular target: T3, Peroxisome proliferator-activated receptor gamma (Homo sapiens) (UniProt P37231); test: Agonist activity at PPARgamma in human HepG2 cells assessed as up-regulation of SCD-1 at 0.5 to 12.5 uM by real-time PCR method; type: functional, cell-based
T3 sequence (whole entry): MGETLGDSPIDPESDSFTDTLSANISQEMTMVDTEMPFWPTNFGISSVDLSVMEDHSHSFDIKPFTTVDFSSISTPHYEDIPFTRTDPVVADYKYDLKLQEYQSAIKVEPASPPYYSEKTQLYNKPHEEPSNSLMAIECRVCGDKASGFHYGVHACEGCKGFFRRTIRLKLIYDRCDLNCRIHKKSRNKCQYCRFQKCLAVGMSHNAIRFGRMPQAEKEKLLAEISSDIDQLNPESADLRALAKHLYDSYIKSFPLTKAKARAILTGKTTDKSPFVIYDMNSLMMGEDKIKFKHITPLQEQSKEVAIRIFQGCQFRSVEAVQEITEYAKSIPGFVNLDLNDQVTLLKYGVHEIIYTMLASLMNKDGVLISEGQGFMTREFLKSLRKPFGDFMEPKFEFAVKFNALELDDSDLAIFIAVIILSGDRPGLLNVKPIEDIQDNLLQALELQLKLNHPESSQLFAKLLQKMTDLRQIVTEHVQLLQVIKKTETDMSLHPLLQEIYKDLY

[5] = tested on: HepG2; test: Upregulation of PPARgamma in human HepG2 cells t 0.5 to 12.5 uM by real-time PCR method relative to control; type: functional
[6] = molecular target: T4, Peroxisome proliferator-activated receptor gamma (Homo sapiens, UniProt P37231); test: Agonist activity at human PPARgamma expressed in CHO cells co-transfected with pGL3-PPRE3-TK-luc assessed as transactivation after 24 hrs by firefly luciferase reporter gene assay; type: functional, cell-based
T4 sequence (P37231 whole entry): T3 sequence (whole entry)

| Structure (SMILES) | Activity [1] | Activity [2] | Activity [3] | Activity [4] | fold change (FC) [5] | EC50 [6] [nM] |
| --- | --- | --- | --- | --- | --- | --- |
| CCC/C=C\C#C/C=C/C(=O)CCCCCCCC(=O)O | inactive | Dose-dependent effect | inactive | inactive | 2.43 | 1880 |
| CCC/C=C\C#C/C=C/C(O)CCCCCCCC(=O)O (centres undefined) | inactive |  | inactive |  |  | > 68400 |
